Data set [1] can be described thus: Cytotoxicity against C57BL/6 mouse primary peritoneal macrophages assessed as reduction in cell viability at 10 uM after 24 hrs by MTT assay. Type of data set: cell-based. The conditions noted are these: peritoneal macrophage cell. (Tetrazolium assays rely on reduction of a dye to a coloured formazan, in cell work by metabolically active cells.)
For data set [2], the target named is T1, Lymphocyte antigen 96 (Mus musculus) (UniProt Q9JHF9).
T1 sequence (whole entry): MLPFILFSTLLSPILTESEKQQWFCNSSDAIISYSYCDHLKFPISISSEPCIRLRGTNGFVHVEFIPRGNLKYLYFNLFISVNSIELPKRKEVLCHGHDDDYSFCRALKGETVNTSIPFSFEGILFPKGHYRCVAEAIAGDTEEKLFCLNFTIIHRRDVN
As to the kind of experiment: Inhibition of MD2/TLR4 complex formation in C57BL/6 mouse primary peritoneal macrophages assessed as reversal of LPS-induced […] at 10 uM preincubated for 30 mins followed by LPS addition measured after 1 hr by DAPI staining based fluorescence microscopic analysis.

The target in data set [3] is T2, Lymphocyte antigen 96 (Homo sapiens) (UniProt Q9Y6Y9).
T2 sequence (whole entry): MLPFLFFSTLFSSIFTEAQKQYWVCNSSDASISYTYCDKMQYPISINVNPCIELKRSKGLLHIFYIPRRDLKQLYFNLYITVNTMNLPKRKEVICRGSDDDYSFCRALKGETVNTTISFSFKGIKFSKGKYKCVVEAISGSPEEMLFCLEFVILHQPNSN
As to the kind of experiment: Binding affinity to recombinant human MD2 (17 to 160 residues) expressed in Escherichia coli BL21(DE3) cells at 6.25 to 100 uM by surface plasmon resonance analysis.

Calls of active or inactive are those of the source. The rule behind the calls is not given here.

Here are results for 34 compounds from ChEMBL document CHEMBL3784925, “Discovery of a New Inhibitor of Myeloid Differentiation 2 from Cinnamamide Derivatives with Anti-Inflammatory Activity in Sepsis and Acute Lung Injury” (J Med Chem, 2016).

Consider `COc1ccc(/C=C/C(=O)NCc2ccccc2)c(OC)c1`, for which, in data set [1], the Activity result is recorded as “Non-toxic”.

Regarding `COc1cc(/C=C/C(=O)NCCc2ccccc2)ccc1O`, the Activity entry in data set [1] is “Non-toxic”.

On to `COc1cc(/C=C/C(=O)NCc2ccc(F)cc2)ccc1O`, for which, in data set [1], the Activity entry is listed as “Non-toxic”.

In the case of `COc1cc(/C=C/C(=O)NCCCCCCNC(=O)/C=C/c2ccc(O)c(OC)c2)ccc1O`, in data set [1], the Activity result is on record as “Non-toxic”.

As for `COc1ccc(/C=C/C(=O)NCCc2ccccc2)c(OC)c1`, the Activity result in data set [1] is on record as “Non-toxic”.

With `COc1nccc(-c2c(-c3ccc(F)cc3)ncn2[C@H]2CC[C@H](O)CC2)n1`, in data set [2], the inhibition entry is “inactive”.

As for `COc1cc(/C=C/C(=O)NCCNC(=O)/C=C/c2ccc(O)c(OC)c2)ccc1O`, the Activity entry in data set [1] is recorded as “Non-toxic”.

`COc1cc(/C=C/C(=O)N2CCOCC2)ccc1O`: the Activity result in data set [1] is on record as “Non-toxic”.

`O=C(/C=C/c1cccc(Cl)c1Cl)NCc1ccc(F)cc1`: in data set [1], the Activity result is recorded as “Non-toxic”.

As for `CCCCNC(=O)/C=C/c1ccc(O)c(OC)c1`, the Activity entry in data set [1] is “Non-toxic”.

`O=C(/C=C/c1cccc(Cl)c1Cl)NCCc1ccccc1`: in data set [1], the Activity entry is listed as “Non-toxic”.

As to `O=C(/C=C/c1cccc(Cl)c1Cl)N1CCOCC1`, the Activity result in data set [1] is on record as “Non-toxic”.

Take `COc1cc(/C=C/C(=O)NCc2ccc(Cl)cc2)ccc1O`: the Activity result in data set [1] is on record as “Non-toxic”.

For the compound `COc1cccc(-c2cc(=O)c3ccccc3o2)c1N`, the inhibition entry in data set [2] is “inactive”.

On to `COc1ccc(/C=C/C(=O)NCCCCCCNC(=O)/C=C/c2ccc(OC)cc2OC)c(OC)c1`, for which, in data set [1], the Activity result is “Non-toxic”.

As for `CCCCNC(=O)/C=C/c1cccc(Cl)c1Cl`, the Activity entry in data set [1] is on record as “Non-toxic”.

For `COc1cc(/C=C/C(=O)NCc2ccccc2)ccc1O`, in data set [1], the Activity result is recorded as “Non-toxic”.

Regarding `COc1ccc(CNC(=O)/C=C/c2cccc(Cl)c2Cl)cc1OC`, the Activity result in data set [1] was “Non-toxic”. Further, the outcome in data set [3] was inactive.

In the case of `COc1ccc(CCNC(=O)/C=C/c2ccc(O)c(OC)c2)cc1`, the Activity result in data set [1] is given as “Non-toxic”.

For `COc1ccc(/C=C/C(=O)NCc2ccc(Cl)cc2)c(OC)c1`, in data set [1], the Activity result is recorded as “Non-toxic”.

For the compound `COc1ccc(/C=C/C(=O)NCc2ccc(F)cc2)c(OC)c1`, the Activity entry in data set [1] is listed as “Non-toxic”.

Take `COc1ccc(/C=C/C(=O)NCCCc2ccccc2)c(OC)c1`: the Activity entry in data set [1] is on record as “Non-toxic”.

Consider `COc1cc(/C=C/C(=O)NCc2ccc(OC)c(OC)c2)ccc1O`, for which, in data set [1], the Activity result was “Non-toxic”.

For the compound `COc1ccc(CCNC(=O)/C=C/c2cccc(Cl)c2Cl)cc1`, the Activity entry in data set [1] is recorded as “Non-toxic”.

For `COc1cc(/C=C/C(=O)NCCCc2ccccc2)ccc1O`, in data set [1], the Activity entry was “Non-toxic”.

With `COc1ccc(/C=C/C(=O)N2CCOCC2)c(OC)c1`, the Activity entry in data set [1] is given as “Non-toxic”.

Consider `O=C(/C=C/c1cccc(Cl)c1Cl)NCCCc1ccccc1`, for which, in data set [1], the Activity result is listed as “Non-toxic”.

For the compound `O=C(/C=C/c1cccc(Cl)c1Cl)NCc1ccc(Cl)cc1`, the Activity result in data set [1] was “Non-toxic”.

For the compound `O=C(/C=C/c1cccc(Cl)c1Cl)NCCCCCCNC(=O)/C=C/c1cccc(Cl)c1Cl`, in data set [1], the Activity result is listed as “Non-toxic”.

Consider `COc1ccc(/C=C/C(=O)NCc2ccc(OC)c(OC)c2)c(OC)c1`, for which the Activity entry in data set [1] is “Non-toxic”.

With `O=C(/C=C/c1cccc(Cl)c1Cl)NCc1ccccc1`, the Activity entry in data set [1] is listed as “Non-toxic”.

On to `COc1ccc(CCNC(=O)/C=C/c2ccc(OC)cc2OC)cc1`, for which the Activity entry in data set [1] is listed as “Non-toxic”.

For the compound `CCCCNC(=O)/C=C/c1ccc(OC)cc1OC`, the Activity result in data set [1] is “Non-toxic”.

For `O=C(/C=C/c1cccc(Cl)c1Cl)NCCNC(=O)/C=C/c1cccc(Cl)c1Cl`, the Activity entry in data set [1] was “Non-toxic”.
